Measurements: US10709706B2, “Nuclear transport modulators and uses thereof” (Karyopharm Therapeutics Inc., priority 2015, dated 2020)

Experiments:
Format in all cases: cell-based
3T3 cells = assay: MTT cell proliferation assay, 3T3 cells; details: Mus musculus, NIH3T3, 3T3 fibroblast cells, approximately 64-72 hours, 1 nM to 30 μM
Procedure: (§1) The MTT cell proliferation assay was used to study the cytotoxic properties of the compounds. The assay was performed according to the method described by Roche Molecular Biochemicals, with minor modifications. The assay is based on the cleavage of the tetrazolium salt, MTT, in the presence of an electron-coupling reagent. The water-insoluble formazan salt produced must be solubilized in an additional step. Cells grown in a 96-well tissue culture plate were incubated with the MTT solution for approximately 4 hours. After this incubation period, a water-insoluble formazan dye formed. After solubilization, the formazan dye was quantitated using a scanning multi-well spectrophotometer (ELISA reader). […] The cells were seeded at 5,000-10,000 cells in each well of 96-well plate in 100 μL of fresh culture medium and were allowed to attach overnight. The stock solutions of the compounds were diluted in 100 μL cell culture medium to obtain eight concentrations of each test compound, ranging from 1 nM to 30 μM. […] All optical densities were measured at 490 nm using a Vmax Kinetic Microplate Reader (Molecular Devices). In most cases, the assay was performed in duplicate and the results were presented as a mean percent inhibition to the negative control±SE. The following formula was used to calculate the percent of inhibition: Inhibition (%)=(1−(ODo/OD))×100.
(§2) The compounds were tested against Z138, MM1S and 3T3 cells. The Z138 cell line is a mature B-cell acute lymphoblastic leukemia cell line derived from a patient with chronic lymphocytic leukemia. The MM1S cell line was established from the peripheral blood of a human multiple myeloma patient. 3T3 cells are standard fibroblast cells; they were originally isolated from Swiss mouse embryo tissue.

Z138 cells = assay: MTT cell proliferation assay, Z138 cells; details: Homo sapiens, Z-138, approximately 64-72 hours, 1 nM to 30 μM
Procedure: as §1, §2

MM1S cells = assay: MTT cell proliferation assay, MM1S cells; details: Homo sapiens, MM1.S, MM1S multiple myeloma cells, approximately 64-72 hours, 1 nM to 30 μM
Procedure: as §1, §2

SMILES	IC50 (3T3 cells) [µM]	IC50 (Z138 cells) [µM]	IC50 (MM1S cells) [µM]
NC(=O)/C(=C/c1ccnc(-c2cc(C(F)(F)F)cc(C(F)(F)F)c2)n1)c1ccccc1 [Compound 120, (E)-3-(2-(3,5-bis(trifluoromethyl)phenyl)pyrimidin-4-yl)-2-phenylacrylamide]	> 30	> 30	> 30
NC(=O)/C(=C/c1ccnc(-c2cc(C(F)(F)F)cc(C(F)(F)F)c2)n1)c1cncc(F)c1 [Compound 121, (E)-3-(2-(3,5-bis(trifluoromethyl)phenyl)pyrimidin-4-yl)-2-(5-fluoropyridin-3-yl)acrylamide]	> 30	> 30	0.1 to 5
NC(=O)/C(=C/c1ccnc(-c2cc(C(F)(F)F)cc(C(F)(F)F)c2)n1)c1ccc(-c2cccnc2)cc1 [Compound 142, (E)-3-(2-(3,5-bis(trifluoromethyl)phenyl)pyrimidin-4-yl)-2-(4-(pyridin-3-yl)phenyl)acrylamide]	> 30	> 30	> 30
N#Cc1ccc(/C(=C\c2ccnc(-c3cc(C(F)(F)F)cc(C(F)(F)F)c3)n2)C(N)=O)s1 [Compound 135, (Z)-3-(2-(3,5-bis(trifluoromethyl)phenyl)pyrimidin-4-yl)-2-(5-cyanothiophen-2-yl)acrylamide]	5 to 30	0.1 to 5	< 0.1
NC(=O)/C(=C/c1ccnc(-c2cc(C(F)(F)F)cc(C(F)(F)F)c2)n1)c1cccc(F)n1 [Compound 150, (E)-3-(2-(3,5-bis(trifluoromethyl)phenyl)pyrimidin-4-yl)-2-(6-fluoropyridin-2-yl)acrylamide]	> 30	0.1 to 5	0.1 to 5
NC(=O)/C(=C/c1ccnc(-c2cc(C(F)(F)F)cc(C(F)(F)F)c2)n1)c1cccc(Cl)c1Cl [Compound 141, (E)-3-(2-(3,5-bis(trifluoromethyl)phenyl)pyrimidin-4-yl)-2-(2,3-dichlorophenyl)acrylamide]	> 30	> 30	> 30
NC(=O)/C(=C/c1ccnc(-c2cc(C(F)(F)F)cc(C(F)(F)F)c2)n1)c1cncc2ccccc12 [Compound 158, (E)-3-(2-(3,5-bis(trifluoromethyl)phenyl)pyrimidin-4-yl)-2-(isoquinolin-4-yl)acrylamide]	> 30	< 0.1	< 0.1
NC(=O)/C(=C/c1ccnc(-c2cc(C(F)(F)F)cc(C(F)(F)F)c2)n1)c1ccc(S(=O)(=O)N2CCCCC2)cc1 [Compound 156, (E)-3-(2-(3,5-bis(trifluoromethyl)phenyl)pyrimidin-4-yl)-2-(4-(piperidin-1-ylsulfonyl)phenyl)acrylamide]	> 30	> 30	> 30
NC(=O)/C(=C/c1ccnc(-c2cc(C(F)(F)F)cc(C(F)(F)F)c2)n1)c1cncc(Cl)c1 [Compound 147, (E)-3-(2-(3,5-bis(trifluoromethyl)phenyl)pyrimidin-4-yl)-2-(5-chloropyridin-3-yl)acrylamide]	> 30	0.1 to 5	< 0.1
CN1CCN(S(=O)(=O)c2cccc(/C(=C\c3ccnc(-c4cc(C(F)(F)F)cc(C(F)(F)F)c4)n3)C(N)=O)c2)CC1 [Compound 146, (E)-3-(2-(3,5-bis(trifluoromethyl)phenyl)pyrimidin-4-yl)-2-(3-((4-methylpiperazin-1-yl)sulfonyl)phenyl)acrylamide]	> 30	> 30	> 30
NC(=O)/C(=C/c1ccnc(-c2cc(C(F)(F)F)cc(C(F)(F)F)c2)n1)c1cccc(S(=O)(=O)N2CC(F)C2)c1 [Compound 145, (E)-3-(2-(3,5-bis(trifluoromethyl)phenyl)pyrimidin-4-yl)-2-(3-((3-fluoroazetidin-1-yl)sulfonyl)phenyl)acrylamide]	> 30	> 30	> 30
NC(=O)/C(Br)=C/c1cncc(-c2cc(C(F)(F)F)cc(C(F)(F)F)c2)n1 [Compound 103, (Z)-3-(6-(3,5-bis(trifluoromethyl)phenyl)pyrazin-2-yl)-2-bromoacrylamide]	> 30	0.1 to 5	0.1 to 5
NC(=O)/C(=C/c1ccnc(-c2cc(C(F)(F)F)cc(C(F)(F)F)c2)n1)c1cc2ccccc2s1 [Compound 137, (Z)-2-(benzo[b]thiophen-2-yl)-3-(2-(3,5-bis(trifluoromethyl)phenyl)pyrimidin-4-yl)acrylamide]	> 30	0.1 to 5	0.1 to 5
Cc1ccc(F)cc1/C(=C\c1ccnc(-c2cc(C(F)(F)F)cc(C(F)(F)F)c2)n1)C(N)=O [Compound 161, (E)-3-(2-(3,5-bis(trifluoromethyl)phenyl)pyrimidin-4-yl)-2-(5-fluoro-2-methylphenyl)acrylamide]	> 30	> 30	> 30
COC(=O)/C(=C/c1cncc(-c2cc(C(F)(F)F)cc(C(F)(F)F)c2)n1)c1cncnc1 [Compound 116, methyl (E)-3-(6-(3,5-bis(trifluoromethyl)phenyl)pyrazin-2-yl)-2-(pyrimidin-5-yl)acrylate]	> 30	5 to 30	5 to 30
NC(=O)/C(=C/c1ccnc(-c2cc(C(F)(F)F)cc(C(F)(F)F)c2)n1)c1cccc(S(=O)(=O)N2CC(F)(F)C2)c1 [Compound 139, (E)-3-(2-(3,5-bis(trifluoromethyl)phenyl)pyrimidin-4-yl)-2-(3-((3,3-difluoroazetidin-1-yl)sulfonyl)phenyl)acrylamide]	–	> 30	> 30
Cc1ccc(/C(=C\c2ccnc(-c3cc(C(F)(F)F)cc(C(F)(F)F)c3)n2)C(N)=O)cc1F [Compound 118, (E)-3-(2-(3,5-bis(trifluoromethyl)phenyl)pyrimidin-4-yl)-2-(3-fluoro-4-methylphenyl)acrylamide]	> 30	> 30	> 30
NC(=O)/C(=C/c1ccnc(-c2cc(C(F)(F)F)cc(C(F)(F)F)c2)n1)c1ccc(Cl)c(Cl)c1 [Compound 153, (E)-3-(2-(3,5-bis(trifluoromethyl)phenyl)pyrimidin-4-yl)-2-(3,4-dichlorophenyl)acrylamide]	> 30	> 30	0.1 to 5
N#Cc1ncc(/C(=C\c2ccnc(-c3cc(C(F)(F)F)cc(C(F)(F)F)c3)n2)C(N)=O)cn1 [Compound 125, (E)-3-(2-(3,5-bis(trifluoromethyl)phenyl)pyrimidin-4-yl)-2-(2-cyanopyrimidin-5-yl)acrylamide]	> 30	< 0.1	< 0.1
NC(=O)/C(=C/c1ccnc(-c2cc(C(F)(F)F)cc(C(F)(F)F)c2)n1)c1ccc(F)cc1F [Compound 132, (E)-3-(2-(3,5-bis(trifluoromethyl)phenyl)pyrimidin-4-yl)-2-(2,4-difluorophenyl)acrylamide]	> 30	> 30	> 30
NC(=O)/C(=C/c1ccnc(-c2cc(C(F)(F)F)cc(C(F)(F)F)c2)n1)c1cccc(S(=O)(=O)N2CCCC2)c1 [Compound 162, (E)-3-(2-(3,5-bis(trifluoromethyl)phenyl)pyrimidin-4-yl)-2-(3-(pyrrolidin-1-ylsulfonyl)phenyl)acrylamide]	> 30	> 30	> 30
NC(=O)/C(=C\c1ccnc(-c2cc(C(F)(F)F)cc(C(F)(F)F)c2)n1)c1cncnc1 [Compound 107, (Z)-3-(2-(3,5-bis(trifluoromethyl)phenyl)pyrimidin-4-yl)-2-(pyrimidin-5-yl)acrylamide]	> 30	5 to 30	0.1 to 5
COC(=O)/C(Br)=C/c1cncc(-c2cc(C(F)(F)F)cc(C(F)(F)F)c2)n1 [Compound 115, methyl (Z)-3-(6-(3,5-bis(trifluoromethyl)phenyl)pyrazin-2-yl)-2-bromoacrylate]	5 to 30	0.1 to 5	0.1 to 5
NC(=O)/C(=C/c1ccnc(-c2cc(C(F)(F)F)cc(C(F)(F)F)c2)n1)c1cccc(S(=O)(=O)N2CCC(F)(F)CC2)c1 [Compound 138, (E)-3-(2-(3,5-bis(trifluoromethyl)phenyl)pyrimidin-4-yl)-2-(3-((4,4-difluoropiperidin-1-yl)sulfonyl)phenyl)acrylamide]	> 30	0.1 to 5	–
NC(=O)/C(=C/c1ccnc(-c2cc(C(F)(F)F)cc(C(F)(F)F)c2)n1)c1ccc(Cl)c(F)c1 [Compound 133, (E)-3-(2-(3,5-bis(trifluoromethyl)phenyl)pyrimidin-4-yl)-2-(4-chloro-3-fluorophenyl)acrylamide]	> 30	< 0.1	–
N#Cc1ccccc1/C(=C\c1ccnc(-c2cc(C(F)(F)F)cc(C(F)(F)F)c2)n1)C(N)=O [Compound 154, (E)-3-(2-(3,5-bis(trifluoromethyl)phenyl)pyrimidin-4-yl)-2-(2-cyanophenyl)acrylamide]	–	> 30	0.1 to 5
